Values joined by “and” are separate entries in the source; they are usually repeats but may differ in a detail not shown here. Identical values can stand only once.
Test system: 379773-124-R-J2-PDC spheroid viability
Assay: Anticancer human tumor 379773-124-R-J2-PDC patient-derived endometrial carcinoma cell line growth inhibition [POLQ]
Conditions: spheroids with HUVEC and MSC; for viability, T/C: stronger effect = lower value
Procedure: Multicellular complex tumor spheroid response to Polymerase (POL) inhibitors (novobiocin, ART-558, RP6685) in combination with a variety of drugs and investigational agents in selected tumor cell lines
The POL inhibitors (novobiocin, ART-558, and RP6685) were evaluated both individually and in combination with standard of care and investigational anticancer small molecules within a complex spheroid model of solid tumors. . Complex spheroids include a stromal component modeled by human endothelial cells (HUVEC) and fibroblasts modeled by human mesenchymal stem cells (MSCs). The concentration ranges selected for each drug and investigational agent were based upon clinically achievable concentrations if the clinical Cmax of the agent was known.
Compounds. The drugs and investigational agents: novobiocin (NSC847541), ART-558 (NSC835418), RP-6685 (NSC848927), peposertib (NSC802822), ceralasertib (NSC780249), elimusertib (NSC800525), camonsertib (NSC841442), AZD-1390 (NSC803789), olaparib (NSC753686), talazoparib (NSC767125), rucaparib (NSC756644), sotorasib (NSC818433), MRTX-1133 (NSC836407), SN-38 (NSC673596), topotecan (NSC609699), epotoside (NSC141540), doxorubicin (NSC123127), gemcitabine (NSC613327), 5-fluorouracil (NSC19893), paclitaxel (NSC125973), vemurafenib (NSC761431), MSA-2 (NSC828583), SN-011 (NSC837082), adavosertib (NSC754352), prexasertib (NSC758257), carboplatin (NSC241240) and oxaliplatin (NSC266046), were obtained from the National Cancer Institute (NCI) Developmental Therapeutics Program Chemical Repository (21). The FDA-approved anticancer drug set is available from the Developmental Therapeutics Program at https://dtp.cancer.gov/organization/dscb/obtaining/. […] The stock solutions were prepared in dimethyl sulfoxide (DMSO, Sigma-Aldrich, St. Louis, MO, cat. D2650), except for the platinum compounds which were prepared in saline (Quality Biological, Gaithersburg, MD, cat. 114-055-101), at 800-fold the tested concentration and stored at -70 degrees C prior to their use. All drugs and investigational agents were tested over a range starting from a high concentration at or near the clinical Cmax and decreasing in half-log increments. If the clinical Cmax for an agent had not been determined, the highest concentration tested was 10 microM, except for SN-38, which was tested at a high concentration of 1 microM.
Cell Culture. All cells were maintained in an incubator at 37 degrees C and 5% CO2 with 95% humidity. The PDC lines were cultured according to standard operating procedures established by the NCI PDMR (https://pdmr.cancer.gov). Table 3 of the manuscript, lists the cell lines along with the number of the three cell types plated to form the mct-spheroids and media for tumor cell growth. After thawing, all PDC lines, except 997537-175-T-J1-PDC and 415267-285-R-J2-PDC, were cultured in Matrigel-coated flasks prepared with a working solution of 1X Ham's F-12 nutrient mix, without supplementation (Thermo Fisher Scientific, cat. 11765054), 100 U/mL penicillin-streptomycin (Thermo Fisher Scientific, cat. 15140122), and 2.5% Matrigel (Corning Inc., Corning, NY, cat. 354248) for the first three passages. The two PDC lines 997537-175-T-J1-PDC and 415267-285-R-J2-PDC were cultured on uncoated flasks. The 857933-349-R-J2-PDC line was cultured in 6C/Colon 1B media containing advanced DMEM/F-12 (Thermo Fisher Scientific, cat. 12634028), 10 mM HEPES (Thermo Fisher Scientific, cat. 15630080), 1X GlutaMAX supplement (Thermo Fisher Scientific, cat. 35050061), 0.1 mg/mL primocin (InvivoGen, San Diego, CA, cat. ant-pm-2), 10% defined fetal bovine serum, heat inactivated (HyClone Laboratories Inc., Logan, UT, cat. SH30070.03HI), 50% L-WRN conditioned media (ATCC, cat. CRL-3276), 1.25 mM N-Acetyl-L-cysteine (Sigma-Aldrich, cat. A9165), 10 mM nicotinamide (Sigma-Aldrich, cat. N0636), 1X B-27 supplement (Thermo Fisher Scientific, cat. 17504044), 1X N-2 supplement (Thermo Fisher Scientific, cat. […]
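Further: spheroids exposed to drugs for seven days before readout.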
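Wherever viability, T/C is given: percent viability relative to DMSO vehicle control taken as 100%.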

Structure (SMILES): CC1COCCN1c1cc(C2(O)CC3CCC(C2)O3)c2cnn(-c3ccn[nH]3)c2n1 (centres undefined)
- viability, T/C (compound 0.0316 µM): 90.7% and 78.4% and 84.5%
- viability, T/C (compound 0.1 µM): 43% and 48.6% and 58.8%
- viability, T/C (compound 0.316 µM): 11.1% and 12% and 16.6%
- viability, T/C (compound 1 µM): 10.4% and 9.93% and 13.2%
- viability, T/C (compound 3.16 µM): 8.43% and 7.19% and 10.1%
- viability, T/C (compound 10 µM): 2.25% and 2.29% and 3.67%
- IC50 (curve of compound): 0.0844 µM and 0.0944 µM and 0.127 µM

Structure (SMILES): CC(=O)O[C@H]1C(=O)[C@@]2(C)[C@H]([C@H](OC(=O)c3ccccc3)[C@]3(O)C[C@H](OC(=O)[C@H](O)[C@@H](NC(=O)c4ccccc4)c4ccccc4)C(C)=C1C3(C)C)[C@]1(OC(C)=O)CO[C@@H]1C[C@@H]2O + COC1C(OC(N)=O)C(O)C(Oc2ccc3c(O)c(NC(=O)c4ccc(O)c(CC=C(C)C)c4)c(=O)oc3c2C)OC1(C)C
- IC50 (curve of first compound, second compound 0.0316 µM): < 0.00949 µM
- IC50 (curve of first compound, second compound 0.1 µM): < 0.00949 µM
- IC50 (curve of first compound, second compound 0.316 µM): < 0.00949 µM
- IC50 (curve of first compound, second compound 1 µM): < 0.00949 µM
- IC50 (curve of first compound, second compound 3.16 µM): < 0.00949 µM
- IC50 (curve of first compound, second compound 10 µM): < 0.00949 µM
- viability, T/C (second compound 0.0316 µM, first compound 0.00949 µM): 19.1%
- viability, T/C (second compound 0.0316 µM, first compound 0.03 µM): 6.48%
- viability, T/C (second compound 0.0316 µM, first compound 0.0949 µM): 7.9%
- viability, T/C (second compound 0.0316 µM, first compound 0.3 µM): 9.31%
- viability, T/C (second compound 0.0316 µM, first compound 0.949 µM): 7.71%
- viability, T/C (second compound 0.0316 µM, first compound 3 µM): 5.65%
- viability, T/C (second compound 0.1 µM, first compound 0.00949 µM): 23.8%
- viability, T/C (second compound 0.1 µM, first compound 0.03 µM): 7.55%
- viability, T/C (second compound 0.1 µM, first compound 0.0949 µM): 8.46%
- viability, T/C (second compound 0.1 µM, first compound 0.3 µM): 7.94%
- viability, T/C (second compound 0.1 µM, first compound 0.949 µM): 6.43%
- viability, T/C (second compound 0.1 µM, first compound 3 µM): 6.33%
- viability, T/C (second compound 0.316 µM, first compound 0.00949 µM): 18.3%
- viability, T/C (second compound 0.316 µM, first compound 0.03 µM): 8.15%
- viability, T/C (second compound 0.316 µM, first compound 0.0949 µM): 8.46%
- viability, T/C (second compound 0.316 µM, first compound 0.3 µM): 9.54%
- viability, T/C (second compound 0.316 µM, first compound 0.949 µM): 7.17%
- viability, T/C (second compound 0.316 µM, first compound 3 µM): 6.23%
- viability, T/C (second compound 1 µM, first compound 0.00949 µM): 24.1%
- viability, T/C (second compound 1 µM, first compound 0.03 µM): 9.6%
- viability, T/C (second compound 1 µM, first compound 0.0949 µM): 8.23%
- viability, T/C (second compound 1 µM, first compound 0.3 µM): 7.23%
- viability, T/C (second compound 1 µM, first compound 0.949 µM): 8.2%
- viability, T/C (second compound 1 µM, first compound 3 µM): 6.6%
- viability, T/C (second compound 3.16 µM, first compound 0.00949 µM): 22%
- viability, T/C (second compound 3.16 µM, first compound 0.03 µM): 8.1%
- viability, T/C (second compound 3.16 µM, first compound 0.0949 µM): 9.73%
- viability, T/C (second compound 3.16 µM, first compound 0.3 µM): 8.26%
- viability, T/C (second compound 3.16 µM, first compound 0.949 µM): 6.92%
- viability, T/C (second compound 3.16 µM, first compound 3 µM): 6.09%
- viability, T/C (second compound 10 µM, first compound 0.00949 µM): 18.3%
- viability, T/C (second compound 10 µM, first compound 0.03 µM): 7.78%
- viability, T/C (second compound 10 µM, first compound 0.0949 µM): 7.88%
- viability, T/C (second compound 10 µM, first compound 0.3 µM): 7.81%
- viability, T/C (second compound 10 µM, first compound 0.949 µM): 6.9%
- viability, T/C (second compound 10 µM, first compound 3 µM): 8.24%

Reference: PubChem BioAssay AID1963848 (Molecular Pharmacology Branch, DTP, NCI, 2024)
